Source: PMC9655874, “Analysis of Volatile Secondary Metabolites in Ocimum basilicum Cell Suspensions: Inhibition, In Silico Molecular Docking, and an ADMET Analysis against Proteolytic Enzymes of Rhynchophorus ferrugineus” (Plants, 2022)
Converted amounts (≈) assume the structure as drawn.

The compounds below were run on R. ferrugineus adults (assay: whole plant or invertebrate). Conditions: Rhynchophorus ferrugineus, read-out: LC50 (µg/mL) 95% CF.
Format: in vivo
Experimental: (§1) Cells were suspended in the methanolic extract at serially increasing concentrations for 40 days. To dilute the compounds, TritonX-100 (0.1%) was added to acetone after the chemicals were dissolved. Adults or larvae of R. ferrugineus were purchased. They were then cultured using long lengths of sugar cane stem. The extracts’ anti-larvae action was assessed by applying topically to larvae and keeping them at 4–5 °C for 5 min. Utilizing a manually controlled micro-applicator, each larva had extract injected into its dorsum in three separate 10 µL doses using a 50-ll micro-syringe from Hertfordshire, UK’s Burkard Manufacturing Co., Ltd. (MS-N50; Shizuoka, Japan’s Ito Corp.). Five larvae in a box with three replications were fed on portions of long sugarcane stem measuring 10 cm. […] The sugarcane stem’s ten-centimeter-long portions cut into equal longitudinal halves were used to measure the antifeedant activity against adults. Long sections of sugarcane stem with a surface area of approximately 32.2 cm^2 were dried in air at room temperature, assuming a dipping time of 10 s and an initial serial concentration of (10 mL). Each treated object remained in a plastic container. Each box included an additional pair (male and female). Each therapy was administered ten times. In total, 24-, 48-, 72-, and 96-h feeding observations were assessed.
(§2) Statistics and probit analysis were performed using SPSS 25.0, as mentioned by Finney. To sum up, all numerical predictions of toxicity variables and findings were presented as the mean ± SE. We regressed mortality and translated the resulting dosage to an LC50 value (µg/mL). […] Enzyme activity data were analyzed using an ANOVA. Means were separated using the SNK (Student–Newman–Keuls) test, and deviations at the p ˂ 0.05 level were considered noteworthy.
`C=C1/C=C/[C@H](C(C)C)CC/C(C)=C/CC1` [germacrene D] showed an LC50 of 2040 µg/mL (≈ 10000 µM). For `C=CC(C)(O)CCC=C(C)C` (centres unmarked) [linalool], the LC50 was 1400 µg/mL (≈ 9060 µM). `CC(C)=CCC/C(C)=C\CO` [nerol] showed an LC50 of 1950 µg/mL (≈ 12600 µM). With `C=C(C)C1CCC(C)C2=C(C1)C(C)CC2` (stereo not drawn) [α-guaiene] the LC50 was 1490 µg/mL (≈ 7300 µM). Compound `C=C1CCC2CC1C2(C)CCC=C(C)C` (stereo not drawn) [β-bergamotene] has an LC50 of 1290 µg/mL (≈ 6330 µM).

These compounds were tested on cysteine protease of R. ferrugineus midgut (assay: Cysteine protease activity in midgut of treated larvae (in vivo)). Conditions: larvae treated 24 h, midgut preparation.
Parameters: species or system Rhynchophorus ferrugineus
Experimental: (§3) Utilizing the substrate N-benzoyl-Phe-Val-Arg-p-nitroanilide hydrochloride and certain modifications, the cysteine proteinases of R. ferrugineus homogenate from the fourth midgut instar was tested for activity. Ten larvae of the fourth midgut were carefully taken out, dissected, and periodically washed with 0.9% (w/v) NaCl solution, assay buffer containing 50 mM HEPS, 5 mM DTT, and 0.1% Triton X-100 (v/v) (pH 8.0, 500 µL) was used to homogenize the samples. The homogenates were spun using a cooling Sigma 3k30 centrifuge for 30 min at 5000 rpm. […] Before introducing 100 µL of the substrate, 10 µL of the supernatant was incubated in assay buffer (60 µL, pH = 8) at 37 °C for 30 min. Enzyme samples in 10 µL were incubated for 10 min with iodoacetic acid before the addition of the substrate. […] The absorbance at 520 nm was measured after spinning the reaction for 6 min at 5000 rpm. The activity in the midgut was assayed at OD520.60 min^−1 mg^−1 of protein with an ELISA rapid reader.
In the case of `C=CC(C)(O)CCC=C(C)C` (centres unmarked) [linalool], the “IC50 cysteine protease (in vivo)” value is reported as 348.2 µg/mL (≈ 2260 µM). With `C=C(C)C1CCC(C)C2=C(C1)C(C)CC2` (stereo not drawn) [α-guaiene] the “IC50 cysteine protease (in vivo)” value was 642.3 µg/mL (≈ 3140 µM). In the case of `C=C1CCC2CC1C2(C)CCC=C(C)C` (stereo not drawn) [β-bergamotene], the “IC50 cysteine protease (in vivo)” value is reported as 521.4 µg/mL (≈ 2550 µM).

The compounds below were run against cysteine protease of R. ferrugineus midgut (assay: Cysteine proteinase activity (in vitro)). Conditions: 4th instar midgut homogenate.
Format: biochemical, Rhynchophorus ferrugineus
Experimental: as §3
In the case of `C=CC(C)(O)CCC=C(C)C` (centres unmarked) [linalool], the “IC50 cysteine protease (in vitro)” value is reported as 189.2 µg/mL (≈ 1230 µM). With `C=C(C)C1CCC(C)C2=C(C1)C(C)CC2` (stereo not drawn) [α-guaiene] the “IC50 cysteine protease (in vitro)” value was 238.5 µg/mL (≈ 1170 µM). For `C=C1CCC2CC1C2(C)CCC=C(C)C` (stereo not drawn) [β-bergamotene], the “IC50 cysteine protease (in vitro)” value was 119.6 µg/mL (≈ 585 µM).

The compounds below were run against elastase of R. ferrugineus midgut (assay: Serine proteinase specific activity, elastase (in vitro)). Conditions: 4th instar midgut homogenate.
Format: biochemical, Rhynchophorus ferrugineus
With `C=CC(C)(O)CCC=C(C)C` (centres unmarked) [linalool] the “IC50 elastase (in vitro)” value was 104.2 µg/mL (≈ 676 µM).

Each compound was assayed on R. ferrugineus 4th larvae (assay: Topical application (contact insecticide) to fourth instar larvae). Conditions: 4th larvae, topical; 95% confidence limits in brackets.
Format: in vivo, Rhynchophorus ferrugineus
Experimental: as §1, §2
For `C=C1/C=C/[C@H](C(C)C)CC/C(C)=C/CC1` [germacrene D], the “LD50 (µg/Larvae) 95% CF” value was 21.3 (19.7–22.5) µg/Larvae. In the case of `C=CC(C)(O)CCC=C(C)C` (centres unmarked) [linalool], the “LD50 (µg/Larvae) 95% CF” value is reported as 13.7 (12.6–14.8) µg/Larvae. For `CC(C)=CCC/C(C)=C\CO` [nerol], the “LD50 (µg/Larvae) 95% CF” value was 15.6 (14.3–16.2) µg/Larvae. `C=C(C)C1CCC(C)C2=C(C1)C(C)CC2` (stereo not drawn) [α-guaiene] was tested, and the “LD50 (µg/Larvae) 95% CF” value was 19.2 (17.8–20.7) µg/Larvae. `C=C1CCC2CC1C2(C)CCC=C(C)C` (stereo not drawn) [β-bergamotene] was tested, and the “LD50 (µg/Larvae) 95% CF” value was 17.2 (16.1–18.4) µg/Larvae.

Same assay, conditions: larvae
For `C=CC(C)(O)CCC=C(C)C` (centres unmarked) [linalool], the LD50 was 13.7 µg/larva. `CC(C)=CCC/C(C)=C\CO` [nerol] showed an LD50 of 15.6 µg/larva.

Same assay, conditions: larvae, topical application
`C=C1/C=C/[C@H](C(C)C)CC/C(C)=C/CC1` [germacrene D] showed an LD50 of 21.3 µg/larva. With `C=CC(C)(O)CCC=C(C)C` (centres unmarked) [linalool] the LD50 was 13.7 µg/larva. Work on `CC(C)=CCC/C(C)=C\CO` [nerol] yielded an LD50 of 15.6 µg/larva. In the case of `C=C(C)C1CCC(C)C2=C(C1)C(C)CC2` (stereo not drawn) [α-guaiene], the LD50 is reported as 19.2 µg/larva. For `C=C1CCC2CC1C2(C)CCC=C(C)C` (stereo not drawn) [β-bergamotene], the LD50 was 17.2 µg/larva.

What follows are compounds tested on total proteases of R. ferrugineus midgut (assay: Total protease activity in midgut of treated larvae (in vivo)). Conditions: larvae treated 24 h, midgut preparation.
Experimental: The homogenate of R. ferrugineus 4th midgut instar larvae (lab strain) was assayed for total proteolytic enzyme activity using azocasein, as Darrag et al. [26], with modifications. Ten 4th midgut larval homogenates were carefully removed, incised, and then rinsed in a solution containing 0.9% NaCl before even being homogenized in a buffer (500 µL) containing 5 mM dithiothreitol (DTT), 0.1% (v/v) Triton X-100, and 50 mM N-2-hydroxyethyl piperazine-N′-2-ethane sulphonic acid (HEPS), and 8.0 pH. It was spun in a centrifuge (Sigma 3k30), and the remaining homogenates were from a preliminary phase for 30 min at 5000 rpm. Using the supernatants, the protein concentration and proteolytic enzyme activity were determined. […] Before each reaction experiment, 40-day-old methanolic extract of cell suspension, pure chemicals, and 10 μL of enzyme specimens were incubated for 10 min. The addition of the substrate initiated the reaction, which was allowed for 20 min in the case of leupeptin before being terminated 180 min later by adding 300 µL of cold tri-chloroacetic acid (TCA) (10%, v/v). Twenty minutes were spent centrifuging the mixture at 5000 rpm (Sigma 3k30). Overall, 10 µL of NaOH (10 N) was added to the supernatant, and the absorbance was measured using an ELISA plate reader at 450 nm to quantify the enzymes’ specific activity as OD450/mg protein/h.
(§4) An experiment that was set up free of potential inhibitors served as a control. An ELISA plate fast reader measured the enzymes’ absorption at various wavelengths. For each inhibitor, the control enzyme’s percentage activity was assessed for each enzyme. Four instars midgut larvae were treated with previous concentrations of extracts or compounds, assessed as previously mentioned, to measure the protease activity in vivo. Larvae were subjected to extract- and compound-treated leaf discs for 24 h.
With `C=C1/C=C/[C@H](C(C)C)CC/C(C)=C/CC1` [germacrene D] the “IC50 total proteases (in vivo)” value was 861.2 µg/mL (≈ 4210 µM). `C=CC(C)(O)CCC=C(C)C` (centres unmarked) [linalool] was tested, and the “IC50 total proteases (in vivo)” value was 192.7 µg/mL (≈ 1250 µM). With `CC(C)=CCC/C(C)=C\CO` [nerol] the “IC50 total proteases (in vivo)” value was 248.6 µg/mL (≈ 1610 µM). In the case of `C=C(C)C1CCC(C)C2=C(C1)C(C)CC2` (stereo not drawn) [α-guaiene], the “IC50 total proteases (in vivo)” value is reported as 694.7 µg/mL (≈ 3400 µM). For `C=C1CCC2CC1C2(C)CCC=C(C)C` (stereo not drawn) [β-bergamotene], the “IC50 total proteases (in vivo)” value was 598.3 µg/mL (≈ 2930 µM).

The compounds below were run on elastase of R. ferrugineus midgut (assay: Elastase activity in midgut of treated larvae (in vivo)). Conditions: larvae treated 24 h, midgut preparation.
Parameters: species or system Rhynchophorus ferrugineus
For `C=CC(C)(O)CCC=C(C)C` (centres unmarked) [linalool], the “IC50 elastase (in vivo)” value was 217.2 µg/mL (≈ 1410 µM).

Each compound was assayed on trypsin proteinase of R. ferrugineus midgut (assay: Trypsin activity in midgut of treated larvae (in vivo)). Conditions: larvae treated 24 h, midgut preparation.
In the case of `C=CC(C)(O)CCC=C(C)C` (centres unmarked) [linalool], the “IC50 trypsin proteinase (in vivo)” value is reported as 137.5 µg/mL (≈ 891 µM). For `CC(C)=CCC/C(C)=C\CO` [nerol], the “IC50 trypsin proteinase (in vivo)” value was 186.3 µg/mL (≈ 1210 µM). For `C=C(C)C1CCC(C)C2=C(C1)C(C)CC2` (stereo not drawn) [α-guaiene], the “IC50 trypsin proteinase (in vivo)” value was 454.4 µg/mL (≈ 2220 µM). In the case of `C=C1CCC2CC1C2(C)CCC=C(C)C` (stereo not drawn) [β-bergamotene], the “IC50 trypsin proteinase (in vivo)” value is reported as 284.5 µg/mL (≈ 1390 µM).

The compounds below were run against metalloprotease of R. ferrugineus midgut (assay: Metalloproteinase specific activity, CEGR substrate (in vitro)). Conditions: 4th instar midgut homogenate.
Experimental: (§5) The ten midgut larvae from the fourth stage were neatly eliminated, dissected, and repeatedly washed with 0.9% NaCl solution. A 500 µL protease test solution, including 50 mM HEPS, 0.1% Triton X-100, and 5 mM DTT (pH 8.0), was utilized to homogenize the midgut instar. The homogenates were then centrifuged employing a Sigma 3k30 (cooling centrifuge) at 5000 rpm for 30 min to evaluate the supernatant’s enzyme activity and protein content. Before introducing CEGR (125 µL, 2% (w/v)), each experiment’s supernatant (10 µL) was incubated in an assay buffer (60 µL) at 37 °C for 20 min (pH 8). During a 10 min incubation period without a substrate, 10 µL enzyme samples were tested (20 min. for EDTA, EGTA, 1.10, Phenanthroline). After 180 min at 37 °C, 300 µL of cold TCA, 10% (v/v), was used to terminate the reaction. For the next 20 min, the mixture was spun (5000 rpm, Sigma 3K30). The absorbance was measured at 450 nm after mixing the supernatant with hydroxide solution (10 µL, 10 N) using an ELISA reader. An enzyme-free assay combination was utilized as a blank, and particular activity was evaluated utilizing the OD493 mg^−1 protein min^−1 and an enzyme-free blank specimen.
as §4
In the case of `C=C1/C=C/[C@H](C(C)C)CC/C(C)=C/CC1` [germacrene D], the “IC50 metalloprotease (in vitro)” value is reported as 112.3 µg/mL (≈ 550 µM). In the case of `C=CC(C)(O)CCC=C(C)C` (centres unmarked) [linalool], the “IC50 metalloprotease (in vitro)” value is reported as 278.2 µg/mL (≈ 1800 µM). With `CC(C)=CCC/C(C)=C\CO` [nerol] the “IC50 metalloprotease (in vitro)” value was 106.7 µg/mL (≈ 692 µM). In the case of `C=C(C)C1CCC(C)C2=C(C1)C(C)CC2` (stereo not drawn) [α-guaiene], the “IC50 metalloprotease (in vitro)” value is reported as 124.9 µg/mL (≈ 611 µM). With `C=C1CCC2CC1C2(C)CCC=C(C)C` (stereo not drawn) [β-bergamotene] the “IC50 metalloprotease (in vitro)” value was 134.8 µg/mL (≈ 660 µM).

Each compound was assayed against total proteases of R. ferrugineus midgut (assay: Total proteolytic enzyme activity of 4th instar midgut homogenate, azocasein (in vitro)). Conditions: not given.
`C=C1/C=C/[C@H](C(C)C)CC/C(C)=C/CC1` [germacrene D] was tested, and the “IC50 total proteases (in vitro)” value was 182.1 µg/mL (≈ 891 µM). For `C=CC(C)(O)CCC=C(C)C` (centres unmarked) [linalool], the “IC50 total proteases (in vitro)” value was 90.7 µg/mL (≈ 588 µM). In the case of `CC(C)=CCC/C(C)=C\CO` [nerol], the “IC50 total proteases (in vitro)” value is reported as 188.3 µg/mL (≈ 1220 µM). `C=C(C)C1CCC(C)C2=C(C1)C(C)CC2` (stereo not drawn) [α-guaiene] was tested, and the “IC50 total proteases (in vitro)” value was 107.4 µg/mL (≈ 526 µM). With `C=C1CCC2CC1C2(C)CCC=C(C)C` (stereo not drawn) [β-bergamotene] the “IC50 total proteases (in vitro)” value was 78.9 µg/mL (≈ 386 µM).

Each compound was assayed against trypsin proteinase of R. ferrugineus midgut (assay: Serine proteinase specific activity, trypsin (in vitro)). Conditions: 4th instar midgut homogenate.
Experimental: We used a serine protease assay buffer and a modified version of the fast microplate method to analyze the serine proteinase’s specific activity in mixtures (150 µL) [26]. […] The sample (10 µL) was diluted using an assay buffer to 50 µL to determine the presence of trypsin proteinase, chymotrypsin proteinase, and elastase. Assay buffer was used to dilute stock substrates of BAρNA (100 mg/mL DMSO), both SAAPFρNA and SAAPLρNA (100 mg/mL DMF), to 1.0 mg/mL. To halt the reaction after 15 min of incubation at 37 °C, 50 µL of acetic acid (30%, v/v) was added. The intensity of the activity was measured using a 405 nm ELISA plate reader. A denaturation enzyme was used in place of an active enzyme in the experiment mixture. For three substrates (SAAPLρNA, BAρNA, and SAAPFρNA), activity levels of certain proteinases were assessed as OD mg^−1 protein min^−1.
as §4
`C=C1/C=C/[C@H](C(C)C)CC/C(C)=C/CC1` [germacrene D] was tested, and the “IC50 trypsin proteinase (in vitro)” value was 144.2 µg/mL (≈ 706 µM). `C=CC(C)(O)CCC=C(C)C` (centres unmarked) [linalool] was tested, and the “IC50 trypsin proteinase (in vitro)” value was 63.4 µg/mL (≈ 411 µM). `CC(C)=CCC/C(C)=C\CO` [nerol] was tested, and the “IC50 trypsin proteinase (in vitro)” value was 68.1 µg/mL (≈ 441 µM). `C=C(C)C1CCC(C)C2=C(C1)C(C)CC2` (stereo not drawn) [α-guaiene] was tested, and the “IC50 trypsin proteinase (in vitro)” value was 66.8 µg/mL (≈ 327 µM). With `C=C1CCC2CC1C2(C)CCC=C(C)C` (stereo not drawn) [β-bergamotene] the “IC50 trypsin proteinase (in vitro)” value was 58.5 µg/mL (≈ 286 µM).

Each compound was assayed on metalloprotease of R. ferrugineus midgut (assay: Metalloprotease activity in midgut of treated larvae (in vivo)). Conditions: larvae treated 24 h, midgut preparation.
Experimental: as §5, §4
With `C=C1/C=C/[C@H](C(C)C)CC/C(C)=C/CC1` [germacrene D] the “IC50 metalloprotease (in vivo)” value was 574.6 µg/mL (≈ 2810 µM). For `CC(C)=CCC/C(C)=C\CO` [nerol], the “IC50 metalloprotease (in vivo)” value was 189.1 µg/mL (≈ 1230 µM). In the case of `C=C(C)C1CCC(C)C2=C(C1)C(C)CC2` (stereo not drawn) [α-guaiene], the “IC50 metalloprotease (in vivo)” value is reported as 594.7 µg/mL (≈ 2910 µM). `C=C1CCC2CC1C2(C)CCC=C(C)C` (stereo not drawn) [β-bergamotene] was tested, and the “IC50 metalloprotease (in vivo)” value was 613.5 µg/mL (≈ 3000 µM).
